Laboratory results: publication PMC5693942 (Scientific Reports, 2017)
≈ marks a conversion by molar mass, not a printed value. Like-named read-outs stand apart in the source and are kept apart here.

Key:
Daphnia magna = Daphnia magna acute 48 h immobilization assay (Daphtoxkit); assay type: in vivo; details: for Average effect (N immobile, 5 daphnids per replicate): 48 h;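 on Average effect (N immobile, 5 daphnids per replicate): test concentrations in mg per L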
Experimental: Six concentration levels (5 concentrations plus control, four replicate beakers for each concentrations, five individual for each beaker) were tested. […] Each experiment was repeated in triplicate.

Tetrahymena thermophila = assay: microbe, parasite or virus in culture; assay type: cell-based; details: for EC50: Tetrahymena thermophila
Experimental: The tests were performed in accordance with the protocols provided by the manufacturer. […] The tests were carried out in disposable spectrophotometric cells of 1 cm path-length, to enable the measurement of the optical density (OD) at 440 nm. […] This change in OD over the time period is used to quantify the degree of inhibition and subsequent calculation of the EC50. Each concentration was repeated in duplicate.

[1] = Activated sludge simulating microcosms (degradation of FL, formation of NFL); assay type: physicochemical
Experimental: Activated sludge microcosm experiments were conducted in the dark and aerobic conditions. Three microcosm bioreactors were investigated in duplicate. They were filled with 2 L of fresh activated sludge collected from a local wastewater treatment plant. […] Dark conditions were simulated by covering up the flask with foil. Aerobic conditions were obtained using air from BOC air cylinder and a thorough mixing was maintained using magnetic stirrers. The experiment was 24 hours long. […] Collected samples were subsequently frozen until their analysis to prevent degradation of compounds.
The compounds studied are characterized as having low volatility and therefore volatilization was not considered as a potential removal pathway in studied microcosms. Photodegradation was also not considered (not relevant) under tested activated sludge conditions. Therefore the two important degradation mechanisms to consider were biodegradation and sorption to sludge. […] However, in this study, sorption equilibrium was assumed and therefore sorption could be considered negligible. This is because sorption is assumed to be fast when compared to biological degradation.
Several reports utilized pseudo-first-order kinetics for degradation of micropollutants in activated sludge reactors[48]–[50]. […] Pseudo-first order biodegradation rate k1 [L g^−1h^−1]

[2] = River water simulating microcosms (degradation of FL)

NCC[C@@H](Oc1ccc(C(F)(F)F)cc1)c1ccccc1 [(R)-NFL, (R)-3-phenyl-3-[4-(trifluoromethyl)phenoxy]-1-propanamine]
Average effect (N immobile, 5 daphnids per replicate) (Daphnia magna; concentration 0.5): 0.25 | Average effect (N immobile, 5 daphnids per replicate) (Daphnia magna; concentration 1.5): 0.5 | Average effect (N immobile, 5 daphnids per replicate) (Daphnia magna; concentration 5): 4.25 | Average effect (N immobile, 5 daphnids per replicate) (Daphnia magna; concentration 16): 5 | Average effect (N immobile, 5 daphnids per replicate) (Daphnia magna; concentration 50): 5 | EC50 (Daphnia magna; Daphnia magna, D. magna, this study, read-out: EC50_48h -immobilization): 2.9 µg/mL (≈ 9.82 µM) | EC50 (Tetrahymena thermophila; T. thermophila, this study, read-out: EC50_24h -growth): 5.8 µg/mL (≈ 19.6 µM) | EC50 (Tetrahymena thermophila; definitive test, read-out: 24hEC50): 5.84 µg/mL (≈ 19.8 µM) | EC50 (Tetrahymena thermophila; range test, read-out: 24hEC50): 0.418 µg/mL (≈ 1.42 µM) | % I (percentage inhibition) (Tetrahymena thermophila; definitive test, conc. 0.220): -4.385% | % I (percentage inhibition) (Tetrahymena thermophila; definitive test, conc. 0.661): -11.658% | % I (percentage inhibition) (Tetrahymena thermophila; definitive test, conc. 22.017): 92.941% | % I (percentage inhibition) (Tetrahymena thermophila; definitive test, conc. 35.941): 94.118% | % I (percentage inhibition) (Tetrahymena thermophila; definitive test, conc. 57.505): 94.332% | % I (percentage inhibition) (Tetrahymena thermophila; definitive test, conc. 118.604): 103.743% | % I (percentage inhibition) (Tetrahymena thermophila; definitive test, conc. 179.703): 104.492% | % I (percentage inhibition) (Tetrahymena thermophila; range test, conc. 0.005): 10.591% | % I (percentage inhibition) (Tetrahymena thermophila; range test, conc. 0.050): -7.266% | % I (percentage inhibition) (Tetrahymena thermophila; range test, conc. 0.500): 50.369% | % I (percentage inhibition) (Tetrahymena thermophila; range test, conc. 5.000): 101.108% | % I (percentage inhibition) (Tetrahymena thermophila; range test, conc. 50.000): 106.897% | Concentration ([1]; 10 µg L-1 microcosm, time 0): 0.035 ± 0.009 ng/mL | Concentration ([1]; 10 µg L-1 microcosm, time 0.5): 0.029 ± 0.001 ng/mL | Concentration ([1]; 10 µg L-1 microcosm, time 1): 0.077 ± 0.004 ng/mL | Concentration ([1]; 10 µg L-1 microcosm, time 1.5): 0.012 ± 0.013 ng/mL | Concentration ([1]; 10 µg L-1 microcosm, time 2): 0.050 ± 0.011 ng/mL | Concentration ([1]; 10 µg L-1 microcosm, time 3): 0.043 ± 0.022 ng/mL | Concentration ([1]; 10 µg L-1 microcosm, time 5): 0.070 ± 0.016 ng/mL | Concentration ([1]; 10 µg L-1 microcosm, time 8): 0.055 ± 0.019 ng/mL | Concentration ([1]; 10 µg L-1 microcosm, time 12): 0.126 ± 0.035 ng/mL | Concentration ([1]; 10 µg L-1 microcosm, time 24): 0.182 ± 0.000 ng/mL | Concentration ([1]; 100 µg L-1 microcosm, time 0): 0.109 ± 0.023 ng/mL | Concentration ([1]; 100 µg L-1 microcosm, time 0.5): 0.132 ± 0.015 ng/mL | Concentration ([1]; 100 µg L-1 microcosm, time 1): 0.128 ± 0.038 ng/mL | Concentration ([1]; 100 µg L-1 microcosm, time 1.5): 0.146 ± 0.039 ng/mL | Concentration ([1]; 100 µg L-1 microcosm, time 2): 0.428 ± 0.019 ng/mL | Concentration ([1]; 100 µg L-1 microcosm, time 3): 0.429 ± 0.164 ng/mL | Concentration ([1]; 100 µg L-1 microcosm, time 5): 0.616 ± 0.227 ng/mL | Concentration ([1]; 100 µg L-1 microcosm, time 8): 0.710 ± 0.193 ng/mL | Concentration ([1]; 100 µg L-1 microcosm, time 12): 0.859 ± 0.069 ng/mL | Concentration ([1]; 100 µg L-1 microcosm, time 24): 1.302 ± 0.066 ng/mL | Concentration ([2]; DAR (dark abiotic), day 5): 0.002 ± 0.000 ng/mL | Concentration ([2]; DBR (dark biotic), day 1): 0.002 ± 0.001 ng/mL | Concentration ([2]; DBR (dark biotic), day 3): 0.002 ± 0.001 ng/mL | Concentration ([2]; DBR (dark biotic), day 5): 0.002 ± 0.001 ng/mL | Concentration ([2]; LAR (light abiotic), day 2): 0.001 ± 0.000 ng/mL | Concentration ([2]; LAR (light abiotic), day 3): 0.004 ± 0.001 ng/mL | Concentration ([2]; LAR (light abiotic), day 4): 0.003 ± 0.000 ng/mL | Concentration ([2]; LAR (light abiotic), day 5): 0.002 ± 0.001 ng/mL | Concentration ([2]; LAR (light abiotic), day 8): 0.001 ± 0.001 ng/mL | Concentration ([2]; LAR (light abiotic), day 9): 0.002 ± 0.001 ng/mL | Concentration ([2]; LAR (light abiotic), day 10): 0.002 ± 0.000 ng/mL | Concentration ([2]; LAR (light abiotic), day 11): 0.003 ± 0.000 ng/mL | Concentration ([2]; LAR (light abiotic), day 12): 0.003 ± 0.001 ng/mL | Concentration ([2]; LAR (light abiotic), day 15): 0.002 ± 0.001 ng/mL | Concentration ([2]; LAR (light abiotic), day 16): 0.004 ± 0.001 ng/mL | Concentration ([2]; LBR (light biotic), day 1): 0.001 ± 0.000 ng/mL | Concentration ([2]; LBR (light biotic), day 2): 0.002 ± 0.000 ng/mL | Concentration ([2]; LBR (light biotic), day 3): 0.002 ± 0.001 ng/mL | Concentration ([2]; LBR (light biotic), day 5): 0.003 ± 0.001 ng/mL

NCCC(Oc1ccc(C(F)(F)F)cc1)c1ccccc1 (centres unmarked) [NFL, norfluoxetine]
EF ([1]; 10 µg L-1 microcosm, time 0): 0.784 | EF ([1]; 10 µg L-1 microcosm, time 0.5): 0.663 | EF ([1]; 10 µg L-1 microcosm, time 1): 0.000 | EF ([1]; 10 µg L-1 microcosm, time 1.5): 0.887 | EF ([1]; 10 µg L-1 microcosm, time 2): 0.750 | EF ([1]; 10 µg L-1 microcosm, time 3): 0.839 | EF ([1]; 10 µg L-1 microcosm, time 5): 0.810 | EF ([1]; 10 µg L-1 microcosm, time 8): 0.856 | EF ([1]; 10 µg L-1 microcosm, time 12): 0.749 | EF ([1]; 10 µg L-1 microcosm, time 24): 0.752 | enantiomeric fraction (EF) ([1]; 10 µg L^−1 reactor, after further slow removal): > 0.7 | EF ([1]; 100 µg L-1 microcosm, time 0): 0.833 | EF ([1]; 100 µg L-1 microcosm, time 0.5): 0.826 | EF ([1]; 100 µg L-1 microcosm, time 1): 0.858 | EF ([1]; 100 µg L-1 microcosm, time 1.5): 0.872 | EF ([1]; 100 µg L-1 microcosm, time 2): 0.848 | EF ([1]; 100 µg L-1 microcosm, time 3): 0.852 | EF ([1]; 100 µg L-1 microcosm, time 5): 0.851 | EF ([1]; 100 µg L-1 microcosm, time 8): 0.843 | EF ([1]; 100 µg L-1 microcosm, time 12): 0.864 | EF ([1]; 100 µg L-1 microcosm, time 24): 0.794 | enantiomeric fraction (EF) ([1]; 100 µg L^−1 microcosm): > 0.7 | EF ([2]; DAR (dark abiotic), day 5): 0.000 | EF ([2]; DBR (dark biotic), day 1): 0.000 | EF ([2]; DBR (dark biotic), day 3): 0.333 | EF ([2]; DBR (dark biotic), day 5): 0.417 | EF ([2]; LAR (light abiotic), day 2): 0.000 | EF ([2]; LAR (light abiotic), day 3): 0.358 | EF ([2]; LAR (light abiotic), day 4): 0.250 | EF ([2]; LAR (light abiotic), day 5): 0.000 | EF ([2]; LAR (light abiotic), day 8): 0.000 | EF ([2]; LAR (light abiotic), day 9): 0.000 | EF ([2]; LAR (light abiotic), day 10): 0.000 | EF ([2]; LAR (light abiotic), day 11): 0.000 | EF ([2]; LAR (light abiotic), day 12): 0.225 | EF ([2]; LAR (light abiotic), day 15): 0.000 | EF ([2]; LAR (light abiotic), day 16): 0.225 | EF ([2]; LBR (light biotic), day 1): 0.000 | EF ([2]; LBR (light biotic), day 2): 0.000 | EF ([2]; LBR (light biotic), day 3): 0.292 | EF ([2]; LBR (light biotic), day 5): 0.292
